Data as given in ChEMBL document CHEMBL6096667, “Design, synthesis and biological evaluation of biaryl amide derivatives as modulators of multi-drug resistance” (Eur J Med Chem, 2025).

Experiments:
A2780/Taxol [1] = assay: Inhibition of cell proliferation of human Paclitaxel-resistant A2780/T cells at 1 uM incubated for 48 hrs in presence of PTX by MTT assay relative to control; type: functional
A2780/Taxol [2] = assay: Reversal of paclitaxel resistance in human Paclitaxel-resistant A2780/T cells by MTT assay; type: functional, cell-based
[3] = molecular target: T1, Broad substrate specificity ATP-binding cassette transporter ABCG2 (Homo sapiens, UniProt Q9UNQ0); assay: Inhibition of ABCG2 in human Paclitaxel-resistant A2780/T cells at high concentration incubated for 48 hrs by Western blot analysis; type: cell-based; conditions: paclitaxel-resistant a2780/t cell
T1 sequence (Q9UNQ0 whole entry): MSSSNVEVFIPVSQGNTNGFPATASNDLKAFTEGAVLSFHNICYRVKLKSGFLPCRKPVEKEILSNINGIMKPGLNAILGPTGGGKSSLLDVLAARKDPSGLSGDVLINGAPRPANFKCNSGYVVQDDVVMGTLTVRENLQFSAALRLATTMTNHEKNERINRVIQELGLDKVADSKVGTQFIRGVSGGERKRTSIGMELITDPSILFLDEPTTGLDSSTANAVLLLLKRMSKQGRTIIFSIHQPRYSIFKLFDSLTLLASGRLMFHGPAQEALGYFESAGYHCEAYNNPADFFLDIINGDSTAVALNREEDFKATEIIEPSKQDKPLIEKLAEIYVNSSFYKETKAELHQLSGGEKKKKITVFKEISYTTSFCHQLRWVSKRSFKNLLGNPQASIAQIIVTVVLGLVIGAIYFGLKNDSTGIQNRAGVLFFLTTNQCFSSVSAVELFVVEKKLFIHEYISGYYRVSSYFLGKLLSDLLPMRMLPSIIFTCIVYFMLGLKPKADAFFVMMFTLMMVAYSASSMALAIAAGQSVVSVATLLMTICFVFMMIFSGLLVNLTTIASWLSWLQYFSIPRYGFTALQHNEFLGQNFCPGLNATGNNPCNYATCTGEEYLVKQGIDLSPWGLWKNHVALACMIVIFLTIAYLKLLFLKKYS

[4] = molecular target: T2, ATP-dependent translocase ABCB1 (Homo sapiens, UniProt P08183); assay: Inhibition of P-gp-mediated drug efflux of Rh123 in human Paclitaxel-resistant A2780/T cells at 2 uM measured upto 120 mins by flow cytometry; type: cell-based; conditions: paclitaxel-resistant a2780/t cell, 2 h
T2 sequence (P08183 whole entry): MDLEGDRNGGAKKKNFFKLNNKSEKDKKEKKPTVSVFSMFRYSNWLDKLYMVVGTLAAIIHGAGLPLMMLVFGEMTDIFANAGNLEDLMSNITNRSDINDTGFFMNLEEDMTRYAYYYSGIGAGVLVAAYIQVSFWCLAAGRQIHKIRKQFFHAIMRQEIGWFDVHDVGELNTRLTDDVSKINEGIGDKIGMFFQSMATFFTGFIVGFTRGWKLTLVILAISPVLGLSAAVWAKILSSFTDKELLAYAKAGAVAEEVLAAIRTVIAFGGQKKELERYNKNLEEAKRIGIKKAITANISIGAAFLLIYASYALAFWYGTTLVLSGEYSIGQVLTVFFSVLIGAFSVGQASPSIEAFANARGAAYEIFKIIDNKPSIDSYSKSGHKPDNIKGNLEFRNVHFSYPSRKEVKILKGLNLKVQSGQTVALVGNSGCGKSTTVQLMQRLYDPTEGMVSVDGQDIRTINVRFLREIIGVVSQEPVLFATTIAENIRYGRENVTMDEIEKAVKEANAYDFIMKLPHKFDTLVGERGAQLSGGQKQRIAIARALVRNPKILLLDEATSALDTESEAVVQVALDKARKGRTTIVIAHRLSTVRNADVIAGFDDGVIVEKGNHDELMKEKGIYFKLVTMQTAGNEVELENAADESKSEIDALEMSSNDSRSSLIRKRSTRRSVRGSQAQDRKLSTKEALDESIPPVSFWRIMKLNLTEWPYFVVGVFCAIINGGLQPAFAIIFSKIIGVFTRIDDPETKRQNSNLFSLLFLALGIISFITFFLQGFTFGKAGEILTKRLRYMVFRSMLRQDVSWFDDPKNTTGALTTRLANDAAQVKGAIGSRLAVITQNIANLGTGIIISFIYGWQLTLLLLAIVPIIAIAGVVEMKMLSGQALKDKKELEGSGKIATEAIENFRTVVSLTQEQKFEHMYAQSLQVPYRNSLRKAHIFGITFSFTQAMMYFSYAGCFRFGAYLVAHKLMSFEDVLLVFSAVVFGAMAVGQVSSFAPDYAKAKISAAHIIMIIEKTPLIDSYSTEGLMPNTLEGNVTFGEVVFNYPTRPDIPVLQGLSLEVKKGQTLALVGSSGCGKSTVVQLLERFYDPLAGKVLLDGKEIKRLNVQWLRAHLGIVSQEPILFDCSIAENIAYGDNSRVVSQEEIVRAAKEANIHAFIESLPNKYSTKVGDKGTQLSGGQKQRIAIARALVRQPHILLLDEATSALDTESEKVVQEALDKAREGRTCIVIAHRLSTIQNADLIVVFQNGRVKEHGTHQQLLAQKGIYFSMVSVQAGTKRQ

[5] = molecular target: T2, ATP-dependent translocase ABCB1; assay: Binding affinity to CM5 sensor chip-immobilized human P-gp assessed as dissociation constant by SPR analysis
[6] = molecular target: T2, ATP-dependent translocase ABCB1; assay: Inhibition of P-gp in human Paclitaxel-resistant A2780/T cells incubated for 48 hrs by Western blot analysis; type: cell-based; conditions: paclitaxel-resistant a2780/t cell, 10 µM
A2780/Taxol [7] = assay: Inhibition of cell proliferation of human Paclitaxel-resistant A2780/T cells incubated for 48 hrs in presence of PTX by MTT assay; type: functional, cell-based
[8] = Reversal of paclitaxel resistance in human A2780/CDDP cells assessed as reversal fold by measuring ratio of paclitaxel IC50 to paclitaxel IC50 in presence of test compound by MTT assay; type: functional
A2780/Taxol [9] = assay: Induction of intracellular Rh123 accumulation in human Paclitaxel-resistant A2780/T cells incubated for 4 hrs by flow cytometry; type: functional, cell-based; conditions: dose 0.5-2 µM
A2780/Taxol [10] = assay: Reversal of paclitaxel resistance in human Paclitaxel-resistant A2780/T cells assessed as reversal fold by measuring ratio of paclitaxel IC50 to paclitaxel IC50 in presence of test compound at 1 uM incubated for 48 hrs by MTT assay; type: functional
[11] = molecular target: Multidrug resistance-associated protein 1 (Homo sapiens, UniProt P33527); assay: Inhibition of MRP1 in human Paclitaxel-resistant A2780/T cells at high concentration incubated for 48 hrs by Western blot analysis; type: cell-based; conditions: paclitaxel-resistant a2780/t cell
Sequence of Multidrug resistance-associated protein 1 (P33527 whole entry): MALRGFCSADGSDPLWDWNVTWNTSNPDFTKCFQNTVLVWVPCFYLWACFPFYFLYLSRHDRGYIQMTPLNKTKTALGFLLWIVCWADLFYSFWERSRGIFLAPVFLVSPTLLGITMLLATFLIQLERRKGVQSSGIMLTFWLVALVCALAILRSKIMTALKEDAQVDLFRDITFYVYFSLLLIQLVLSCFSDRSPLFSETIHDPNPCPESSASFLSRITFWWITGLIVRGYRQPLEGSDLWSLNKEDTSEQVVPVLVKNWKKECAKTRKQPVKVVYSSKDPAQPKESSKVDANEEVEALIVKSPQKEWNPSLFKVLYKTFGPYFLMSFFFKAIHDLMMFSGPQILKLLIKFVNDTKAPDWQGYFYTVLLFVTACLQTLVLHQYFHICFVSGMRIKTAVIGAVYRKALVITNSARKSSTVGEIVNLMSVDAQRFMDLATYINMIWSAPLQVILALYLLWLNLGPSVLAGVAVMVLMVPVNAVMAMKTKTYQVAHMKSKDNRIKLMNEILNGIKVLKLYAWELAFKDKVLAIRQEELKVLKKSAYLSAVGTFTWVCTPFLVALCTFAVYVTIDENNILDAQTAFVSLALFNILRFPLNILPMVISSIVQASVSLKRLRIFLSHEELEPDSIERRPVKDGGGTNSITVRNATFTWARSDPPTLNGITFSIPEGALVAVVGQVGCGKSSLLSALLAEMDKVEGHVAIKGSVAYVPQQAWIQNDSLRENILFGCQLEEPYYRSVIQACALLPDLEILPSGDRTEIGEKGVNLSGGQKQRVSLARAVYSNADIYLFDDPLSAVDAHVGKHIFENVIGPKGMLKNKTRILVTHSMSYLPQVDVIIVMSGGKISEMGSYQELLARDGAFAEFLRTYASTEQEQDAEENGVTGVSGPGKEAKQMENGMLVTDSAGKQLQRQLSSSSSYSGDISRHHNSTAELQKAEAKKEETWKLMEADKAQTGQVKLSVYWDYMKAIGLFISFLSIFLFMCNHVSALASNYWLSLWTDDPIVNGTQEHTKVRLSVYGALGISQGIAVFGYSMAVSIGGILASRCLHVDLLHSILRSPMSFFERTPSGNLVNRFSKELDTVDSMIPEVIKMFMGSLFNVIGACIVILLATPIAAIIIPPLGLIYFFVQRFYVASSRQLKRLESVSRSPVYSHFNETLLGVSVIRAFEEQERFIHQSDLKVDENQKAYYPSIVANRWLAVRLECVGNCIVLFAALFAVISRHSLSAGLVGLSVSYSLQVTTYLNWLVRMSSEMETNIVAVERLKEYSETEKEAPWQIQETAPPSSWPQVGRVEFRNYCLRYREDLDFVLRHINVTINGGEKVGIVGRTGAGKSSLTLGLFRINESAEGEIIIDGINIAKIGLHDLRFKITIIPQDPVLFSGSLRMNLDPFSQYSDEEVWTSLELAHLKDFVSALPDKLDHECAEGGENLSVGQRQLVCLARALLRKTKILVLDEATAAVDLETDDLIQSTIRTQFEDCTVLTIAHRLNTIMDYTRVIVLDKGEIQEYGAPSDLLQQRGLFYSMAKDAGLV

[12] = Reversal of paclitaxel resistance in human CDDP-resistant A549 cells assessed as reversal fold by measuring ratio of paclitaxel IC50 to paclitaxel IC50 in presence of test compound by MTT assay; type: functional, CDDP-resistant A549 cell
A2780/Taxol [13] = assay: Inhibition of cell proliferation of human Paclitaxel-resistant A2780/T cells at 10 uM incubated for 48 hrs in presence of PTX by MTT assay relative to control; type: functional

EC50 (A2780/Taxol [2]): 88 nM | inhibition (INH) [3]: Not_active | inhibition (INH) [4]: Active | Kd [5]: 798 nM | inhibition (INH) [6]: Dose-dependent-effect | IC50 (A2780/Taxol [7]): > 50000 nM | inhibition (INH) [11]: Active
Compound: COc1cc(-c2ccc(CNC(=O)c3cn(C)c4ccccc34)nc2)cc(OC)c1OC
inhibition at 1 µM (A2780/Taxol [1]): 55% | Ratio IC50 [8]: 11 | Activity (A2780/Taxol [9]): Dose-dependent-effect; Activity Was Observed Superior To Vrp | Ratio IC50 (A2780/Taxol [10]): 156 | Ratio IC50 [12]: 7 | inhibition at 10 µM (A2780/Taxol [13]): 88%
